Laboratory results as given in the supplement of paper PMC10307832.

What was measured:
Experiment in all cases: relative viability (nuclei count vs DMSO), 5 days (fraction); higher = more cells survive
Dovitinib + Luminespib = compound: CN1CCN(c2ccc3nc(-c4c(N)c5c(F)cccc5[nH]c4=O)[nH]c3c2)CC1 [Dovitinib] + CCNC(=O)c1noc(-c2cc(C(C)C)c(O)cc2O)c1-c1ccc(CN2CCOCC2)cc1 [Luminespib] (partner 0.01 µM)
Summary of the method: (§1)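 Relative viability divides the nuclei count in treated wells by that in vehicle wells. Lung cancer cell lines were seeded in 1536-well plates, dosed by pin tool the next day, and fixed and stained after 5 days in one step with final 0.05% Triton X-100, 1% formaldehyde and 1 ug/ml Hoechst. Dosing was a single drug or a fixed anchor-drug dose plus five library-drug doses (not always all listed) in √10 steps, and values are medians of duplicate plates imaged at 4×.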

Dovitinib + Bortezomib = compound: CN1CCN(c2ccc3nc(-c4c(N)c5c(F)cccc5[nH]c4=O)[nH]c3c2)CC1 [Dovitinib] + CC(C)C[C@H](NC(=O)[C@H](Cc1ccccc1)NC(=O)c1cnccn1)B(O)O [Bortezomib] (partner 0.002 µM)
Summary of the method: as §1

Dovitinib + Dasatinib = compound: CN1CCN(c2ccc3nc(-c4c(N)c5c(F)cccc5[nH]c4=O)[nH]c3c2)CC1 [Dovitinib] + Cc1nc(Nc2ncc(C(=O)Nc3c(C)cccc3Cl)s2)cc(N2CCN(CCO)CC2)n1 [Dasatinib] (partner 0.075 µM)
Summary of the method: as §1

Dovitinib + Palbociclib = compound: CN1CCN(c2ccc3nc(-c4c(N)c5c(F)cccc5[nH]c4=O)[nH]c3c2)CC1 [Dovitinib] + CC(=O)c1c(C)c2cnc(Nc3ccc(N4CCNCC4)cn3)nc2n(C2CCCC2)c1=O [Palbociclib] (partner 0.5 µM)
Summary of the method: as §1

Cell Line | relative viability (Dovitinib + Luminespib; first compound 0.02 µM) | relative viability (Dovitinib + Luminespib; first compound 0.06325 µM) | relative viability (Dovitinib + Luminespib; first compound 0.2 µM) | relative viability (Dovitinib + Luminespib; first compound 0.6325 µM) | relative viability (Dovitinib + Luminespib; first compound 2 µM) | relative viability (Dovitinib + Bortezomib; first compound 0.02 µM) | relative viability (Dovitinib + Bortezomib; first compound 0.06325 µM) | relative viability (Dovitinib + Bortezomib; first compound 0.2 µM) | relative viability (Dovitinib + Bortezomib; first compound 0.6325 µM) | relative viability (Dovitinib + Bortezomib; first compound 2 µM) | relative viability (Dovitinib + Dasatinib; first compound 0.02 µM) | relative viability (Dovitinib + Dasatinib; first compound 0.06325 µM) | relative viability (Dovitinib + Dasatinib; first compound 0.2 µM) | relative viability (Dovitinib + Dasatinib; first compound 0.6325 µM) | relative viability (Dovitinib + Dasatinib; first compound 2 µM) | relative viability (Dovitinib + Palbociclib; first compound 0.02 µM) | relative viability (Dovitinib + Palbociclib; first compound 0.06325 µM) | relative viability (Dovitinib + Palbociclib; first compound 0.2 µM) | relative viability (Dovitinib + Palbociclib; first compound 0.6325 µM) | relative viability (Dovitinib + Palbociclib; first compound 2 µM)
HOP-62 | 0.888 | 1.03 | 0.868 | 0.89 | 0.931 | 0.604 | 0.619 | 0.794 | 0.968 | 0.578 | 0.643 | 0.601 | 0.64 | 0.632 | 0.662 | 0.355 | 0.456 | 0.465 | 0.396 | 0.499
NCI-H1915 | 0.717 | 0.897 | 0.884 | 0.775 | 0.781 | 0.873 | 0.963 | 0.955 | 0.91 | 0.986 | 0.317 | 0.308 | 0.313 | 0.278 | 0.353 | 0.512 | 0.533 | 0.537 | 0.488 | 0.553
NCI-H3122 | 0.0862 | 0.096 | 0.092 | 0.0979 | 0.112 | 0.984 | 0.977 | 1.03 | 1.05 | 1.01 | 0.721 | 0.857 | 0.914 | 0.832 | 0.749 | 0.226 | 0.173 | 0.184 | 0.181 | 0.21
NCI-H1651 | 0.901 | 0.902 | 0.996 | 0.752 | 0.683 | 0.957 | 0.961 | 1.03 | 1.02 | 0.91 | 0.388 | 0.43 | 0.484 | 0.469 | 0.486 | 0.538 | 0.532 | 0.526 | 0.53 | 0.549
NCI-H838 | 0.277 | 0.307 | 0.349 | 0.25 | 0.289 | 0.639 | 0.699 | 0.851 | 0.76 | 0.758 | 0.293 | 0.269 | 0.31 | 0.273 | 0.288 | 0.231 | 0.209 | 0.217 | 0.217 | 0.228
SK-LU-1 | 0.203 | 0.19 | 0.204 | 0.18 | 0.198 | 0.977 | 0.993 | 1.06 | 1.28 | 1.26 | 0.167 | 0.176 | 0.21 | 0.185 | 0.19 | 0.39 | 0.372 | 0.358 | 0.481 | 0.38
NCI-H441 | 0.351 | 0.382 | 0.286 | 0.32 | 0.342 | 0.497 | 0.593 | 0.352 | 0.531 | 0.433 | 0.708 | 0.556 | 0.675 | 0.568 | 0.63 | 0.22 | 0.195 | 0.212 | 0.221 | 0.194
NCI-H650 | 0.798 | 0.667 | 0.808 | 0.744 | 0.788 | 0.883 | 0.711 | 0.729 | 0.709 | 0.806 | 0.48 | 0.383 | 0.49 | 0.5 | 0.432 | 0.321 | 0.333 | 0.359 | 0.317 | 0.357
